Assay results reported in patent US4351840A, “Antibacterial esters of resorcinol with ampicillin and penicillanic acid 1,1-dioxide derivatives” (priority 1981, dated 1982).
Read-outs that look alike come from different tables or passages of the source.

Assays:
[1] = target: T1, beta-lactamase from Staphylococcus aureus 01A400 (Staphylococcus aureus, UniProt P00807); assay: Inhibition of ampicillin hydrolysis by cell-free beta-lactamase (microiodometric); type: biochemical
T1 construct: Cell-free extracts were prepared by sonic treatment; endogenous in cells; host or cells: Staphylococcus aureus strain 01A400, induced with penicillin G; cell-free extract by French press
T1 sequence (P00807 25-281): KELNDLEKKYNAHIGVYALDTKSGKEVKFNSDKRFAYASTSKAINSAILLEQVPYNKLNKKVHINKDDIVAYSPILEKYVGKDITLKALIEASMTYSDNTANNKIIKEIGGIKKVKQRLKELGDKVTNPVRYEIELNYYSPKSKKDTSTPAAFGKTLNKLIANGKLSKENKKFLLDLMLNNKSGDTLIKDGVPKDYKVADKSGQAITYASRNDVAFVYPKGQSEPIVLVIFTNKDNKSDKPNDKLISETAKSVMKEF
Procedure: (§1) The compounds of the present invention are thus evaluated in vitro by the ability of penicillanic acid 1,1-dioxide derivatives of the formula (IV) to inhibit the hydrolysis of beta-lactam antibiotics by beta-lactamase enzymes. The hydrolysis of ampicillin was determined by the microiodometric method of Novick [Biochem, J. 83, 236 (1962)]. Conditions for this assay are 0.5 M potassium phosphate, pH 6.5 and 37° C. Reactions were initiated by the addition of the cell-free beta-lactamase, except in the case of preincubation experiments in which the inhibitor and enzyme were incubated together in the assay mixture for 10 minutes before initiation of the reaction by addition of substrate. With the cellfree extracts of Staphylococcus aureus, Escherichia coli, Klebsiella pneumoniae and Pseudomonas aeruginosa, the substrate was ampicillin at 33 micro M (13 microg./ml). Typical specific activities of the beta-lactamase preparations were, respectively, 6,019, 88,970, 260 and 76 micromol/hr. per mg. of protein.
(§2) Cell-free extracts were prepared by sonic treatment (using three 30-s bursts at 4° C. except for S. aureus, which was broken with a French press) of cultures grown in brain heart infusion on a rotary shaker incubator. For the S. aureus, P. aeruginose, and E. cloacae strains, de novo synthesis of beta-lactamase was induced by growing a log-phase culture in the presence of a sublethal concentration of penicillin G at 100, 1,000, and 300 microg./ml, respectively, for 2.5 hr.

[2] = tested on: beta-lactamase from Escherichia coli 51A129; assay: as above; type: biochemical; conditions: ampicillin 33 μM, pH 6.5, 37° C.
Procedure: as §1, §2

[3] = tested on: beta-lactamase from Klebsiella pneumoniae 53A129; assay: as above; type: biochemical; conditions: ampicillin 33 μM, pH 6.5, 37° C.
Procedure: as §1, §2

[4] = tested on: Staphylococcus aureus 01A005; assay: Minimum inhibitory concentration on BHI agar; type: cell-based; conditions: 18 hrs., 37° C., inhibitor alone or 1:1 mixture with ampicillin
Procedure: (§3) The procedure which follows is the one recommended by the International Collaborative Study on Antibiotic Sensitivity Testing [Ericcson and Sherris, Acta. Pathologica et Microbiologia Scandinav, Supp. 217, Sections A and B: 64-68 (1971)], and employs brain heart infusion (BHI) agar and the inocula replicating device. Overnight growth tubes are diluted 100 fold for use as the standard inoculum (20,000-10,000 cells in approximately 0.002 ml are placed on the agar surface; 20 ml of BHI agar/dish). Twelve 2 fold dilutions of the test compound are employed, with initial concentration of the test drug being 200 mcg/ml. Single colonies are disregarded when reading tubes after 18 hrs. at 37° C.
(§4) These MIC's are then compared with the MIC values obtained with a combination of ampicillin and the beta-lactamase inhibitor. […] The MIC values of combinations are measured using the method described by Barry and Sabath in "Manual of Clinical Microbiology", edited by Lenette, Spaulding and Truant, 2nd Edition, 1974, American Society for Microbiology.

[5] = tested on: Citrobacter diversus 70C031; assay: Minimum inhibitory concentration on BHI agar; type: cell-based; conditions: 18 hrs., 37° C., inhibitor alone or 1:1 mixture with ampicillin
Procedure: as §3, §4

[6] = tested on: Pseudomonas aeruginosa 52A104; assay: Minimum inhibitory concentration on BHI agar; type: cell-based; conditions: 18 hrs., 37° C., inhibitor alone or 1:1 mixture with ampicillin
Procedure: as §3, §4

[7] = tested on: Serratia marcescens 63A095; assay: Minimum inhibitory concentration on BHI agar; type: cell-based; conditions: 18 hrs., 37° C., inhibitor alone or 1:1 mixture with ampicillin
Procedure: as §3, §4

[8] = tested on: Enterobacter cloacae 67B009; assay: Minimum inhibitory concentration on BHI agar; type: cell-based; conditions: 18 hrs., 37° C., inhibitor alone or 1:1 mixture with ampicillin
Procedure: as §3, §4

[9] = tested on: Escherichia coli 51A266; assay: Minimum inhibitory concentration on BHI agar; type: cell-based; conditions: 18 hrs., 37° C., inhibitor alone or 1:1 mixture with ampicillin
Procedure: as §3, §4

[10] = tested on: Staphylococcus aureus 01A400; assay: Minimum inhibitory concentration on BHI agar; type: cell-based; conditions: 18 hrs., 37° C., inhibitor alone or 1:1 mixture with ampicillin
Procedure: as §3, §4

[11] = tested on: Proteus morgani 57G001; assay: Minimum inhibitory concentration on BHI agar; type: cell-based; conditions: 18 hrs., 37° C., inhibitor alone or 1:1 mixture with ampicillin
Procedure: as §3, §4

[12] = tested on: Klebsiella pneumoniae 53A079; assay: Minimum inhibitory concentration on BHI agar; type: cell-based; conditions: 18 hrs., 37° C., inhibitor alone or 1:1 mixture with ampicillin
Procedure: as §3, §4

[13] = target: beta-lactamase from Pseudomonas aeruginosa 52A104 (Pseudomonas aeruginosa, UniProt P24735); assay: Inhibition of ampicillin hydrolysis by cell-free beta-lactamase (microiodometric); type: biochemical; conditions: ampicillin 33 μM, pH 6.5, 37° C., read-out: % Inhibition Beta-Lactam Hydrolysis
beta-lactamase from Pseudomonas aeruginosa 52A104, sequence (P24735 27-397): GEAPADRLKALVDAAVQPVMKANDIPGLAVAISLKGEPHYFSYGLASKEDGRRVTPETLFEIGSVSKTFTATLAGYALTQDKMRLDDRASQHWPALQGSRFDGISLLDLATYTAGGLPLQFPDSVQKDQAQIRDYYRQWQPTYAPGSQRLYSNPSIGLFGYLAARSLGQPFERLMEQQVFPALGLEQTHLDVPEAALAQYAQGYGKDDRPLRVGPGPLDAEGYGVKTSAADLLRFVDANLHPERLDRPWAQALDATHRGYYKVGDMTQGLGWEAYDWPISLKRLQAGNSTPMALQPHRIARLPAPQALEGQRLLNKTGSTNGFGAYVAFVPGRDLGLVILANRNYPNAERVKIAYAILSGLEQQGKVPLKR
Procedure: as §1, §2

[14] = pH 6.5, read-out: % Inhibition Beta-Lactam Hydrolysis

SMILES: CC1(C)[C@H](C(=O)O)N2C(=O)[C@@H](CO)[C@H]2S1(=O)=O [A, 6-beta-(Hydroxymethyl)pencillanic acid 1,1-dioxide]
- inhibition at 1 µM ([1]; inhibitor 1.0 μM, ampicillin 33 μM, pH 6.5, 37° C., read-out: % Inhibition Beta-Lactam Hydrolysis): 39.3%
- inhibition at 16.5 µM ([1]; inhibitor 16.5 μM, ampicillin 33 μM, pH 6.5, 37° C., read-out: % Inhibition Beta-Lactam Hydrolysis): 78.8%
- inhibition at 66 µM ([1]; inhibitor 66 μM, ampicillin 33 μM, pH 6.5, 37° C., read-out: % Inhibition Beta-Lactam Hydrolysis): 98.3%
- % Inhibition Beta-Lactam Hydrolysis ([2]; inhibitor 0.67 μM): 92.1%
- % Inhibition Beta-Lactam Hydrolysis ([2]; inhibitor 1.0 μM): 95.7%
- % Inhibition Beta-Lactam Hydrolysis ([2]; inhibitor 16.5 μM): 100%
- % Inhibition Beta-Lactam Hydrolysis ([2]; inhibitor 66 μM): 100%
- % Inhibition Beta-Lactam Hydrolysis ([3]; inhibitor 1.0 μM): 81.2%
- % Inhibition Beta-Lactam Hydrolysis ([3]; inhibitor 16.5 μM): 100%
- % Inhibition Beta-Lactam Hydrolysis ([3]; inhibitor 66 μM): 100%

SMILES: CC1(C)[C@H](C(=O)O)N2C(=O)C[C@H]2S1(=O)=O [B, Penicillanic acid 1,1-dioxide]
- MIC [4]: 100 µg/mL
- MIC [5]: 200 µg/mL
- MIC [6]: > 200 µg/mL
- MIC [7]: 200 µg/mL
- MIC [8]: 100 µg/mL
- MIC [9]: 25 µg/mL
- MIC [10]: 200 µg/mL
- MIC [11]: 200 µg/mL
- MIC [12]: 50 µg/mL
- inhibition at 1 µM [1, 14]: 0%
- inhibition at 16.5 µM [1, 14]: 95%
- inhibition at 66 µM [1, 14]: 100%
- % Inhibition Beta-Lactam Hydrolysis ([2]; inhibitor 1.0 μM): 97.0%
- % Inhibition Beta-Lactam Hydrolysis ([2]; inhibitor 16.5 μM): 100%
- % Inhibition Beta-Lactam Hydrolysis ([2]; inhibitor 66 μM): 100%
- % Inhibition Beta-Lactam Hydrolysis ([3]; inhibitor 16.5 μM): 100%
- % Inhibition Beta-Lactam Hydrolysis ([3]; inhibitor 66 μM): 100%
- inhibition at 16.5 µM ([13]; inhibitor 16.5 μM): 5%
- inhibition at 66 µM ([13]; inhibitor 66 μM): 27.5%
